Patent publication USRE49687E1, “Thienopyrimidine and thienopyridine compounds and methods of use thereof” (The Regents of The University of Michigan, priority 2014, dated 2023)

Molecular target: T1, menin-MLL interaction (Homo sapiens, UniProt O00255)
T1 sequence (O00255 1-610): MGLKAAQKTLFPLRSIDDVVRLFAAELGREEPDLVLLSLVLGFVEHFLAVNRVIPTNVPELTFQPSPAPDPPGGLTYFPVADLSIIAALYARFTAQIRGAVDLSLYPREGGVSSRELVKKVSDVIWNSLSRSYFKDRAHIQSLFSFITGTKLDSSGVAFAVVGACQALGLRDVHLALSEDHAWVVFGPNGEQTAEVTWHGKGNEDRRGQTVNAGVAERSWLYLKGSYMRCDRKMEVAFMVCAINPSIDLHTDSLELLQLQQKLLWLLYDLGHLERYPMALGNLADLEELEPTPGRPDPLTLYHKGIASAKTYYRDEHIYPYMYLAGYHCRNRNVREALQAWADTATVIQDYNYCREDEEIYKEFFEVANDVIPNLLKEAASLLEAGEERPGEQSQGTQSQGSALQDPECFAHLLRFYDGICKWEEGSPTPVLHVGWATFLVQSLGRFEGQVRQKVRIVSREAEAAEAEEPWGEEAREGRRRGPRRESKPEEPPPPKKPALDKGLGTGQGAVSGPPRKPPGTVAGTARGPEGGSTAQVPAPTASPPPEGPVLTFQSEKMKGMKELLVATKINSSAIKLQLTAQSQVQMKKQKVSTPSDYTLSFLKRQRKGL
Assay: Fluorescence polarization (FP) competition assay of the menin-MLL interaction
Assay type: binding
Conditions: inhibition of the menin-MLL interaction; read-out: IC50 values for Table 1 inhibitors of menin

Row | Compound | IC50 [nM]
1 | CP(C)(=O)c1cc2cc(CN3CCC(Nc4ncnc5sc(CC(F)(F)F)cc45)CC3)ccc2[nH]1 [Compound 205] | > 1000
2 | C=CC(=O)Nc1ccc(CCn2c(C#N)cc3c(C)c(CN4CCC(Nc5ncnc6sc(CC(F)(F)F)cc56)CC4)ccc32)cc1P(=O)(C(C)C)C(C)C [Compound 206] | 100 to 1000
3 | C[Si](C)(C)CCOCn1c(P(C)(C)=O)cc2cc(CN3CCC(Nc4ncnc5sc(CC(F)(F)F)cc45)CC3)ccc21 [Compound 207] | > 1000
4 | C=CC(=O)N1CCC(C(O)Cn2c(C#N)cc3c(C)c(CN4CCC(Nc5ncnc6sc(CC(F)(F)F)cc56)CC4)ccc32)CC1 (centres unmarked) [Compound 210] | 100 to 1000
5 | CCC(=O)N1CCC(C(O)Cn2c(C#N)cc3c(C)c(CN4CCC(Nc5ncnc6sc(CC(F)(F)F)cc56)CC4)ccc32)CC1 (centres unmarked) [Compound 211] | 100 to 1000
6 | C=CC(=O)Nc1ccc(C2(Cn3c(C#N)cc4c(C)c(CN5CCC(Nc6ncnc7sc(CC(F)(F)F)cc67)CC5)ccc43)CC2)cn1 [Compound 216] | 100 to 1000
7 | Cc1c(CN2CCC(Nc3ncnc4sc(CC(F)(F)F)cc34)CC2)ccc2c1cc(C#N)n2CCP(C)(C)=O [Compound 218] | 100 to 1000
8 | [2H]C([2H])=C([2H])C(=O)Nc1ccc(C(O)Cn2c(C#N)cc3c(C)c(CN4CCC(Nc5ncnc6sc(CC(F)(F)F)cc56)CC4)ccc32)cn1 (centres unmarked) [Compound 242] | 30 to 100
9 | C=CC(=O)Nc1ccc([C@](C)(O)Cn2c(C#N)cc3c(C)c(CN4CCC(Nc5ncnc6sc(CC(F)(F)F)cc56)CC4)ccc32)cc1 [Compound 243] | 30 to 100
10 | C=CC(=O)Nc1ccc([C@@](C)(O)Cn2c(C#N)cc3c(C)c(CN4CCC(Nc5ncnc6sc(CC(F)(F)F)cc56)CC4)ccc32)cc1 [Compound 244] | 30 to 100
11 | CCC(=O)Nc1ccc(CCn2c(C#N)cc3c(C)c(CN4CCC(Nc5ncnc6sc(CC(F)(F)F)cc56)CC4)ccc32)cn1 [Compound 254] | 100 to 1000

More lines, now with the values ahead:

Row | IC50 [nM] | Compound
12 | < 30 | C=CS(=O)(=O)N1CCN(CCn2c(C#N)cc3c(C)c(CN4CCC(Nc5ncnc6sc(CC(F)(F)F)cc56)CC4)ccc32)CC1 [Compound 3, 4-methyl-1-(2-(4-vinylsulfonylpiperazin-1-yl)ethyl)-5-((4-((6-(2,2,2-trifluoroethyl)thieno[2,3-d]pyrimidin-4-yl)amino)piperidin-1-yl)methyl)-1H-indole-2-carbonitrile]
13 | 30 to 100 | Cc1c(CN2CCC(Nc3ncnc4sc(CC(F)(F)F)cc34)CC2)ccc2c1cc(C#N)n2CC(O)c1cccc(S(C)(=O)=O)c1 (centres unmarked) [Compound 197]
14 | < 30 | C=CC(=O)Nc1ccc(CCn2c(C#N)cc3c(C)c(CN4CCC(Nc5ncnc6sc(CC(F)(F)F)cc56)CC4)ccc32)cc1P(C)(C)=O [Compound 199]
15 | 30 to 100 | Cc1c(CN2CCC(Nc3ncnc4sc(CC(F)(F)F)cc34)CC2)ccc2c1cc(C#N)n2CCc1ccc(P(C)(C)=O)cc1 [Compound 202]
16 | < 30 | C=CC(=O)Nc1ccc(CCn2c(C#N)cc3c(C)c(CN4CCC(Nc5ncnc6sc(CC(F)(F)F)cc56)CC4)ccc32)cc1P(=O)(CC)CC [Compound 203]
17 | 30 to 100 | Cc1c(CN2CCC(Nc3ncnc4sc(CC(F)(F)F)cc34)CC2)ccc2c1cc(C#N)n2CCc1cccc(P(C)(C)=O)c1 [Compound 204]
18 | 30 to 100 | C=CC(=O)N1CCC(Cn2c(C#N)cc3c(C)c(CN4CCC(Nc5ncnc6sc(CC(F)(F)F)cc56)CC4)ccc32)C1 (centres unmarked) [Compound 208]
19 | 30 to 100 | C=CC(=O)Nc1ccc(C(C)(O)Cn2c(C#N)cc3c(C)c(CN4CCC(Nc5ncnc6sc(CC(F)(F)F)cc56)CC4)ccc32)cn1 (centres unmarked) [Compound 209]
20 | 30 to 100 | CCC(=O)Nc1ccc(C(C)(O)Cn2c(C#N)cc3c(C)c(CN4CCC(Nc5ncnc6sc(CC(F)(F)F)cc56)CC4)ccc32)cn1 (centres unmarked) [Compound 212]
21 | 30 to 100 | C=CC(=O)NC1CCC(Cn2c(C#N)cc3c(C)c(CN4CCC(Nc5ncnc6sc(CC(F)(F)F)cc56)CC4)ccc32)C1 (centres unmarked) [Compound 219]
22 | < 30 | C=CC(=O)N1CC2CCC(C1)N2CCn1c(C#N)cc2c(C)c(CN3CCC(Nc4ncnc5sc(CC(F)(F)F)cc45)CC3)ccc21 [Compound 229]
23 | < 30 | C=CS(=O)(=O)N1CCN(CCn2c(C#N)cc3c(C)c(CN4CCC(Nc5ncnc6sc(CC(F)(F)F)cc56)CC4)ccc32)C[C@@H]1C [Compound 230]
24 | < 30 | C=CS(=O)(=O)Nc1ccc(CCn2c(C#N)cc3c(C)c(CN4CCC(Nc5ncnc6sc(CC(F)(F)F)cc56)CC4)ccc32)cc1 [Compound 231]
25 | < 30 | C=CS(=O)(=O)NC1CCN(CCn2c(C#N)cc3c(C)c(CN4CCC(Nc5ncnc6sc(CC(F)(F)F)cc56)CC4)ccc32)CC1 [Compound 232]
26 | 30 to 100 | C=CC(=O)N1CCC(Cn2c(C#N)cc3c(C)c(CN4CCC(Nc5ncnc6sc(CC(F)(F)F)cc56)CC4)ccc32)CC1 [Compound 233]
27 | 30 to 100 | [2H]C([2H])=C([2H])C(=O)Nc1ccc(CCn2c(C#N)cc3c(C)c(CN4CCC(Nc5ncnc6sc(CC(F)(F)F)cc56)CC4)ccc32)cc1 [Compound 241]

Molecular target: T2, menin (Homo sapiens, UniProt O00255)
T2 sequence (O00255 1-610): T1 sequence (O00255 1-610)
Assay: Crystal structure of menin in complex with compound
Conditions: FIG. 1

Row | Compound | covalent binding of the compound to a Cys residue on menin
28 | C=CS(=O)(=O)N1CCN(CCn2c(C#N)cc3c(C)c(CN4CCC(Nc5ncnc6sc(CC(F)(F)F)cc56)CC4)ccc32)CC1 [Compound 3, 4-methyl-1-(2-(4-vinylsulfonylpiperazin-1-yl)ethyl)-5-((4-((6-(2,2,2-trifluoroethyl)thieno[2,3-d]pyrimidin-4-yl)amino)piperidin-1-yl)methyl)-1H-indole-2-carbonitrile] | covalent binding of the compound to a Cys residue on menin

System: MV4; 11 cells (harboring MLL-AF4 fusion protein)
Assay: In vivo xenograft study with MV4;11 cells injected subcutaneously
Set-up: species or system CB17 SCID mice
Conditions: once daily, i.p., 25 mg/kg; treatment initiated when tumors reached ~100 mm^3
Excerpt: FIG. 3 depicts in vivo xenograft studies with MV4; 11 cells (harboring MLL-AF4 fusion protein) injected subcutaneously into CB17 SCID mice.
Efficacy Study in Mouse Xenograft Tumor Model.
Immunodeficient mice, such as 8-10 week-old female nude (nu/nu) mice, are used for in vivo efficacy studies in accordance with the guidelines approved by IACUC. Leukemia cells, such as human MV4-11 leukemia cells available from ATCC, are implanted subcutaneously via needle into female nude mice (5×10^6 cells/mouse). When the tumor reaches a size of approximately 100 mm^3 in mice, the tumor-bearing mice are randomly assigned to a vehicle control or compound treatment group (8 animals per group). Animals are treated with a compound of the present invention by oral gavage or intraperitoneal injection in an appropriate amount and frequency as can be determined by the skilled artisan without undue experimentation. Subcutaneous tumor volume in nude mice and mice body weight are measured twice weekly. Tumor volumes are calculated by measuring two perpendicular diameters with calipers (V=(length×width^2)/2). Percentage tumor growth inhibition (% TGI=1−[change of tumor volume in treatment group/change of tumor volume in control group]*100) is used to evaluate anti-tumor efficacy. Statistical significance is evaluated using a one-tailed, two sample t test. P<0.05 is considered statistically significant.

Row | Compound | tumor volume
29 | C=CS(=O)(=O)N1CCN(CCn2c(C#N)cc3c(C)c(CN4CCC(Nc5ncnc6sc(CC(F)(F)F)cc56)CC4)ccc32)CC1 [Compound 3, 4-methyl-1-(2-(4-vinylsulfonylpiperazin-1-yl)ethyl)-5-((4-((6-(2,2,2-trifluoroethyl)thieno[2,3-d]pyrimidin-4-yl)amino)piperidin-1-yl)methyl)-1H-indole-2-carbonitrile] | strong reduction of tumor volume
